In US12226405B2, “Compounds and compositions for inhibiting the activity of HIF2-alpha and their methods of use” (Novartis AG, priority 2020, dated 2025):
pIC50: −log10 of the molar value.

Legend:
[1] = test system: HIF2α-regulated expression of the endogenous target gene hEGLN3 in 786-O cells; assay: Cellular iScript assay for HIF2α (quantitative RT-PCR of hEGLN3); assay type: cell-based, human; conditions: Homo sapiens, 786-0, 48 hours incubation
Method: (§1) Stock solutions of compounds were prepared at a concentration of 10 mM in DMSO and stored at 4° C. Where necessary to afford a full dose-response curve, the stock solutions were pre-diluted in DMSO to 1,000-fold the desired reduced start concentration. On the day after cell seeding, eleven 2-fold serial dilutions of each compound were dispensed directly into the cell assay plates using either HP 300D non-contact Digital Dispenser (TECAN) or a ATS100 acoustic dispenser (EDC Biosystems).
Compound-mediated modulation of the HIF2α-regulated expression of the endogenous target gene hEGLN3 (OMIM: 606426), as well as beta-actin (OMIM: 102630) as a house-keeping control, was assess in 786-O cells (RRID CVCL_1051) using a quantitative RT-PCR approach. In short, 786-O cells were maintained in growth medium composed of DMEM (GIBCO #11995-065), 2 mM L-Glutamine (BioConcept #5-10K50-H), 1× Penicillin/Streptomycin (BioConcept #4-01F00-H), 10% fetal calf serum (Gibco #A31608-01), 1 mM Sodium pyruvate (BioConcept #5-60F00-H). Cells were seeded at 1,000 cells/20 μL/well into white-wall, clear-bottom 384-well plates (Greiner #781098) and incubated over night at 37° C. prior to addition of serial compound dilutions as described above. Following incubation for 48 hours at 37° C., medium supernatant was discarded and the plate blotted dry by inverting on a tissue. The same procedure was repeated following one wash with 20 μL phosphate-buffered saline. Following addition of 25 μL/well iScript sample preparation reagent (BioRad #170-8899) using a 16-channel Matrix pipette, the plate was incubated for 2 min at room temperature. 20 μL lysate supernatant was then removed and transferred to a new 384 well plate (Costar #3656) and diluted 1:3 by adding 5 μL of the lysate to 10 μL H2O using a Bravo liquid handler (Agilent). 2 μL of the diluted lysate was added to the 8 μL of a mastermix containing 5 μL iTaq Universal Probes One-step kit (BioRad #172-5141), 0.25 μL iScript reverse transcription supermix (BioRad #1708840), 0.25 μL 40×HEX-ZEN-labeled TaqMan probe for beta-actin (IDT #Hs.PT.39a.22214847: Probe 5′ HEX-TCA TCC ATG/ZEN/GTG AGC TGG CGG-3′ (SEQ ID NO: 2) Iowa Black FQ, Primer 1: ACA GAG CCT CGC CTT TG (SEQ ID NO: 3); Primer 2: CCT TGC ACA TGC CGG (SEQ ID NO: 4) AG), 0.25 μL, 40×FAM-ZEN-labeled TaqMan probe for hEGLN3 (IDT #Hs.PT.58.189348: Probe 5′ 6-FAM-TTT GGC TTC/ZEN/TGC CCT TTC TTC AGC-3′ (SEQ ID NO: 5) Iowa Black FQ, Primer 1: CACGGTCAGTCTTCAGTGAG (SEQ ID NO: 6); Primer 2: CGCAACCAGATATGCTATGACT (SEQ ID NO: 7)), 2.25 μL RNase-free water, prelaid in a 384 well plate (ABI #4309849) using a 16-channel Matrix pipette. The plate was sealed with a PCR-compatible optical film (MicroAmp, ABI #4360954) and centrifuged (1500 rpm, 5 min, +4° C.) to collect all reagents in the bottom of the well and to remove bubbles. The plate content was amplified on a 7900HT thermal cycler (ABI) using the following conditions: Step 1: 50° C. for 10 min, Step 2: 95° C. for 3 min, Step 3 (40×): 95° C. for 15 s, 60° C. for 1 min. ROX (reaction volume 10 μL) was used as a passive reference. Data were collected with manual adjustment of the Ct threshold (beta-actin: 0.046, hEGLN3: 0.06) and were analyzed using the 2^(−ΔΔCt) method. Thus, for each sample, the following values were calculated: 2^(−Ct)a for beta-actin, 2^(−Ct)e for EGLN3, and 2^(−ΔCt) calculated as (2^(−Ct)e/2^(−Ct)a). The mean 2^(−ΔCt) as well as the corresponding standard deviation was calculated for each sample. Taking the DMSO-treated sample as a reference, the 2^(−ΔΔCt) for each sample was calculated as follows: 2^(−ΔΔCt)=2^(−ΔCt)sample/(2^(−ΔCt)DMSO). After calculating differential expression as 2^(−ΔΔCt) for each sample, it was then expressed as a percentage (×100) to obtain a dose-response curve in % of DMSO control and IC50s were calculated using a four-parametric fit model.

[2] = target: HIF2α PAS-B domain (236-350, biotinylated on the N-terminus) (Homo sapiens (Human), UniProt Q99814)
Chain of HIF2α PAS-B domain (236-350, biotinylated on the N-terminus) (Q99814 236-350): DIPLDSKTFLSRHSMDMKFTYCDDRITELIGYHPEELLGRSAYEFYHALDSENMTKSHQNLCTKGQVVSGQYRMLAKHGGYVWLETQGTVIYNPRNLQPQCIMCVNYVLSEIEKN
Method: The assay buffer contained 50 mM Tris-HCl pH7 (Sigma), 20 mM NaCl (Fluka), 0.02% BSA (Sigma), 0.005% Triton X-100 (Pierce) and 1 mM DTT (Fluka). After a 30 min incubation period, 5 μL Streptavidin PVT SPA Beads (Perkin Elmer) at 1.2 mg/mL, diluted in the buffer, were added.

[3] = test system: HIF2α-dependent transcription in 786-O-HRE-Luc cells; assay: In vitro cellular hypoxia response element (HRE) reporter gene assay (RGA) for HIF2α; assay type: cell-based, human; conditions: Homo sapiens, 24 hours incubation
Method: as §1
The ability of compounds to inhibit HIF2α- and HIF1α-dependent transcription was assessed in 786-O-HRE-Luc and RCC4-HRE-Luc cells, respectively. The putative unselective inhibition of firefly luciferase activity or expression was assessed in 786-O-UB6-Luc and RCC4-UB6-Luc cells, respectively. The reporter lines were generated as follows: 786-O (RRID: CVCL_1051) and RCC4 (RRID: CVCL_0498) clear cell renal carcinoma cell lines were obtained from ATCC and Celeste Simon (University of Pennsylvania), respectively. Either cell line was transduced with a lentiviral vector in which the expression of a PEST-destabilized version of firefly-luciferase is under the control of either a minimal promoter coupled to four copies of a minimal hypoxia response element (HRE) sequence (pLenti 4×HRE Luc PEST), or a promoter from the house-keeping UBC gene (pLenti UB6 Luc PEST). In short, for the construction of the pLenti 4×HRE Luc PEST vector, 4×HRE DNA oligonucleotides were synthesized, annealed and cloned into pGL4.27 plasmid vector (Promega) predigested with NheI and HindIII restriction enzymes. The sequence of the two DNA oligonucleotides was as follows: NheI 4×HRE HindIII FWD: […] (SEQ ID NO: 8); NheI 4×HRE HindIII REV […] (SEQ ID NO: 9). The 4×HRE Luc PEST fragment was then PCRed from this plasmid with restriction enzyme sites NheI and XhoI at the two ends, and inserted into pLenti6/BLOCK iT DEST (Thermo Fisher Scientific) predigested with NheI and XhoI restriction enzymes. For the construction of the pLenti UB6 Luc PEST vector, the Luc PEST sequence was PCRed from pGL4.27 (Promega) using EcoRV and XhoI restriction enzymes at the two ends, and inserted into pLenti6/UBC/V5/DEST (Thermo Fisher Scientific) predigested with the same enzymes. 786-O and RCC4 cells (300,000 per well of a 6 well plate) were infected in the presence of 10 μg/ml polybrene with lentivirus harvested two days after transfection of HEK293-FT (ThermoFisher Scientific #R70007) cells (80% confluent in a 100 cm^2 dish) with a mix of 1.5 ml OptiMEM (ThermoFisher Scientific #31985062) containing 3 μg of the desired plasmids and 9 μl of ViralPower Packaging mix (ThermoFisher Scientific #K497500), and 1.5 ml OptiMEM containing 36 μl Lipofectamine 2000 (ThermoFisher Scientific #11668019). Successfully infected cells were selected using blasticidin (Gibco #A11139-03) at a final concentration of 5 μg/ml. The resulting stable cell lines were named 786-O pLenti 4×HRE Luc PEST (short: 786-O-HRE-Luc), 786-O pLenti UB6 Luc PEST (short: 786-O-UB6-Luc), RCC4 pLenti 4×HRE Luc PEST (short: RCC4-HRE-Luc) and RCC4 pLenti UB6 Luc PEST (short: RCC4-UB6-Luc). All 4 cell lines were maintained in growth medium composed of DMEM (GIBCO #11995-065), 2 mM L-Glutamine (BioConcept #5-10K50-H), 10% fetal calf serum (Gibco #A31608-01), 1× Penicillin/Streptomycin (BioConcept #4-01F00-H), 1 mM Sodium pyruvate (BioConcept #5-60F00-H) and 5 μg/ml blasticidin (Gibco #A11139-03) at 37° C. in a humidified 5% CO2 incubator.
For the reporter gene assay, the individual cell lines were seeded at 2,500 cells/20 μL/well into white-wall, clear-bottom 384-well plates (Greiner #781098) and incubated over night at 37° C. prior to addition of serial compound dilutions as described above. […]

Structure (SMILES) | pIC50 [1] | pIC50 [2] | pIC50 [3]
FC(F)OC1=CC(C(F)(F)F)=CN2CC3(CCCc4c(C(F)(F)F)cccc43)N=C12 (racemic) [Example 87, rac-8-(difluoromethoxy)-5′,6-bis(trifluoromethyl)-3′,4′-dihydro-2′H,3H-spiro[imidazo[1,2-a]pyridine-2,1′-naphthalene]] | 6.80 | – | –
Fc1ccc2c(c1F)CC[C@@]21CN2C=C(C(F)(F)F)C=C(OC(F)F)C2=N1 [Example 2, (S)-8-(difluoromethoxy)-4′,5′-difluoro-6-(trifluoromethyl)-2′,3′-dihydro-3H-spiro[imidazo[1,2-a]pyridine-2,1′-indene]] | 6.82 | 7.92 | 5.82
FC(F)OC1=CC(C(F)(F)F)=CN2C[C@@]3(CCc4cc(C(F)(F)F)ncc43)N=C12 [Example 3, (S)-8′-(difluoromethoxy)-3,6′-bis(trifluoromethyl)-5,6-dihydro-3′H-spiro[cyclopenta[c]pyridine-7,2′-imidazo[1,2-a]pyridine]] | 6.73 | 7.92 | < 5.00
FC(F)OC1=CC(C(F)(F)F)=CN2C[C@@]3(CCc4cc(C(F)(F)F)ccc43)N=C12 [Example 6, (S)-8-(difluoromethoxy)-5′,6-bis(trifluoromethyl)-2′,3′-dihydro-3H-spiro[imidazo[1,2-a]pyridine-2,1′-indene]] | 7.08 | – | 6.60
FC(F)(F)C1=CN2C[C@@]3(CCc4c3ccc(Br)c4Cl)N=C2C(Cl)=C1 [Example 71, (S)-5′-bromo-4′,8-dichloro-6-(trifluoromethyl)-2′,3′-dihydro-3H-spiro[imidazo[1,2-a]pyridine-2,1′-indene]] | 6.74 | 7.70 | –
FC(F)OC1=CC(C(F)(F)F)=CN2C[C@@]3(CCc4cc(Br)ccc43)N=C12 [Example 72, (5)-5′-bromo-8-(difluoromethoxy)-6-(trifluoromethyl)-2′,3′-dihydro-3H-spiro[imidazo[1,2-a]pyridine-2,1′-indene]] | 7.08 | 8.15 | –
FC(F)OC1=CC(C(F)(F)F)=CN2C[C@@]3(CCc4ccccc43)N=C12 [Example 75, (S)-8-(difluoromethoxy)-6-(trifluoromethyl)-2′,3′-dihydro-3H-spiro[imidazo[1,2-a]pyridine-2,1′-indene]] | 6.74 | 7.12 | –
Fc1cccc2c1CCC[C@@]21CN2C=C(C(F)(F)F)C=C(Cl)C2=N1 [Example 79, (S)-8-chloro-5′-fluoro-6-(trifluoromethyl)-3′,4′-dihydro-2′H,3H-spiro[imidazo[1,2-a]pyridine-2,1′-naphthalene]] | 7.15 | 8.30 | –
O=C1CC[C@@]2(CN3C=C(C(F)(F)F)C=C(OC(F)F)C3=N2)c2ccc(Br)cc21 [Example 90, (S)-6′-bromo-8-(difluoromethoxy)-6-(trifluoromethyl)-2′,3′-dihydro-3H,4′H-spiro[imidazo[1,2-a]pyridine-2,1′-naphthalen]-4′-one] | 6.79 | 8.00 | –
N#CC1=CN2C[C@@]3(CCSc4c3ccc(Br)c4F)N=C2C(OC(F)F)=C1 [Example 110, (S)-7′-bromo-8-(difluoromethoxy)-8′-fluoro-3H-spiro[imidazo[1,2-a]pyridine-2,4′-thiochromane]-6-carbonitrile] | 7.46 | – | –
Fc1ccc2c(c1F)SCC[C@@]21CN2C=C(C(F)(F)F)C=C(OC(F)F)C2=N1 [Example 113, (S)-8-(difluoromethoxy)-7′,8′-difluoro-6-(trifluoromethyl)-3H-spiro[imidazo[1,2-a]pyridine-2,4′-thiochromane]] | 7.49 | 8.40 | –
Fc1cccc2c1CSC[C@@]21CN2C=C(C(F)(F)F)C=C(OC(F)F)C2=N1 [Example 115, (S)-8-(difluoromethoxy)-8′-fluoro-6-(trifluoromethyl)-3H-spiro[imidazo[1,2-a]pyridine-2,4′-isothiochromane]] | 7.52 | ≥ 8.52 | –
Fc1ccc2c(c1)CSC[C@@]21CN2C=C(C(F)(F)F)C=C(OC(F)F)C2=N1 [Example 116, (S)-8-(difluoromethoxy)-7′-fluoro-6-(trifluoromethyl)-3H-spiro[imidazo[1,2-a]pyridine-2,4′-isothiochromane]] | 7.34 | 8.22 | –
